The source of these data is publication PMC4996684 (Bioorganic & medicinal chemistry letters, 2016).

Like-named read-outs stand apart in the source and are kept apart here.

The target in this assay is T1, human M5 mAChR (Homo sapiens, UniProt P08912).
T1 sequence (P08912 1-532): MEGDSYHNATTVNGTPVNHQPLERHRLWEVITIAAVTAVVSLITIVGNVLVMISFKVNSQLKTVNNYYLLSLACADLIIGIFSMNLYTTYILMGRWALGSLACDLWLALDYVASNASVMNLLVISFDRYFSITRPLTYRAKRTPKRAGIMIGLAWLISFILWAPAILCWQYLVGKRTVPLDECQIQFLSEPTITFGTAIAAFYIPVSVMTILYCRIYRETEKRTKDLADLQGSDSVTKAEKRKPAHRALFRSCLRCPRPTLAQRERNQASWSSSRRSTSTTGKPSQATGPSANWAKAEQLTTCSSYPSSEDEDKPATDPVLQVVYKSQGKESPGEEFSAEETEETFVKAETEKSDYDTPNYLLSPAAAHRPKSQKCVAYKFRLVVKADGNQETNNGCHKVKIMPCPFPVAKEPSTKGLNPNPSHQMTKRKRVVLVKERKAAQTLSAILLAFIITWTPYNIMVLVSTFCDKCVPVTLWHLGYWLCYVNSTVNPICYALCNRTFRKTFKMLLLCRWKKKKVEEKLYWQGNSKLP
The experiment in a line: hM5 functional inhibition assay. The following applies: for hM5 Percent inhibition (Table 3): single point at 10 μM, EC80 of ACh, average of three determinations. The format is cell-based.

For the molecule `Cc1nn(C)c(C)c1S(=O)(=O)N1CCC2(CC1)OCCS2` [Compound 4, 8-((1,3,5-trimethyl-1H-pyrazol-4-yl)sulfonyl)-1-oxa-4-thia-8-azaspiro[4,5]decane], the inhibition at 10 µM by setting is: (read-out: hM5 Percent inhibition (Table 2)) 84%; (read-out: hM5 Percent inhibition (Table 3)) 88%; (read-out: maximum M5 inhibition, single point M5 inhibition assay) 50%. Moreover, the “activity in the 10 μM single point assay” value (resynthesized 4, 10 μM) was found to be 88%.
As to `Cc1nn(C)cc1S(=O)(=O)N1CCC2(CC1)OCCS2` [Compound 9b], the “hM5 Percent inhibition (Table 3)” value is “Inactive”.
On the same count and under the same terms, to `Cn1cnc(S(=O)(=O)N2CCC3(CC2)OCCS3)c1` [Compound 9h] belongs “Inactive”.
